Consider 46 compounds from US11945836B2, “Compositions and methods for treating CNS disorders” (Sage Therapeutics, Inc., priority 2014, dated 2024).

The assay addresses rat brain cortical membranes ([35S]-TBPS binding). Put plainly: Steroid inhibition of [35S]-TBPS binding (radioligand displacement). Conditions: 3 nM [35S]-TBPS, in the presence of 5 μM GABA. As for the experimental part:
Steroid Inhibition of TBPS Binding
TBPS binding assays using rat brain cortical membranes in the presence of 5 μM GABA has been described (Gee et al, J. Pharmacol. Exp. Ther. 1987, 241, 346-353; Hawkinson et al, Mol. Pharmacol. 1994, 46, 977-985; Lewin, A. H et al., Mol. Pharmacol. 1989, 35, 189-194).
Briefly, cortices are rapidly removed following decapitation of carbon dioxide-anesthetized Sprague-Dawley rats (200-250 g). The cortices are homogenized in 10 volumes of ice-cold 0.32 M sucrose using a glass/teflon homogenizer and centrifuged at 1500×g for 10 min at 4° C. The resultant supernatants are centrifuged at 10,000×g for 20 min at 4° C. to obtain the P2 pellets. The P2 pellets are resuspended in 200 mM NaCl/50 mM Na—K phosphate pH 7.4 buffer and centrifuged at 10,000×g for 10 min at 4° C. This washing procedure is repeated twice and the pellets are resuspended in 10 volumes of buffer. Aliquots (100 uL) of the membrane suspensions are incubated with 3 nM [^35S]-TBPS and 5 μL aliquots of test drug dissolved in dimethyl sulfoxide (DMSO) (final 0.5%) in the presence of 5 μM GABA. The incubation is brought to a final volume of 1.0 mL with buffer. […] Following a 90 min incubation at room temp, the assays are terminated by filtration through glass fiber filters (Schleicher and Schuell No. 32) using a cell harvester (Brandel) and rinsed three times with ice-cold buffer. Filter bound radioactivity is measured by liquid scintillation spectrometry. Non-linear curve fitting of the overall data for each drug averaged for each concentration is done using Prism (GraphPad). […] The concentration of test compound producing 50% inhibition (IC50) of specific binding and the maximal extent of inhibition (Imax) are determined for the individual experiments with the same model used for the overall data and then the means±SEMs of the individual experiments are calculated.
Various compounds are or can be screened to determine their potential as modulators of [^35S]-TBPS binding in vitro. These assays are or can be performed in accordance with the above discussed procedures.
Take `C[C@@]1(O)CC[C@@]2(C)[C@H](CC[C@@H]3[C@@H]2CC[C@]2(C)[C@@H](C(=O)c4ccc(OC(F)(F)F)cc4)CC[C@@H]32)C1` [Compound 47]: the half-maximal inhibitory concentration (IC50) (commonly the concentration at which inhibition is half-maximal) lay in the range of 20 to 50 nM.
Regarding `CSc1ccc(C(=O)[C@H]2CC[C@H]3[C@@H]4CC[C@@H]5C[C@](C)(O)CC[C@]5(C)[C@H]4CC[C@]23C)cc1` [Compound 48], the 50% inhibitory concentration (IC50) fell in the range of 20 to 50 nM.
On to `CCc1ccc(C(=O)[C@H]2CC[C@H]3[C@@H]4CC[C@@H]5C[C@](C)(O)CC[C@]5(C)[C@H]4CC[C@]23C)cc1` [Compound 49], for which the IC50 was < 20 nM.
In the case of `COc1ccccc1C(=O)[C@H]1CC[C@H]2[C@@H]3CC[C@@H]4C[C@](C)(O)CC[C@@H]4[C@H]3CC[C@]12C` [Compound 50], the IC50 was > 100 nM.
`C[C@@]1(O)CC[C@@]2(C)[C@H](CC[C@@H]3[C@@H]2CC[C@]2(C)[C@@H](C(=O)c4ccc(Cl)cc4)CC[C@@H]32)C1` [Compound 51]: the IC50 is 50 to 100 nM.
For `C[C@@]1(O)CC[C@H]2[C@H](CC[C@@H]3[C@@H]2CC[C@]2(C)[C@@H](C(=O)c4ccc(Cl)cc4)CC[C@@H]32)C1` [Compound 52], the half-maximal inhibitory concentration (IC50) lay in the range of 20 to 50 nM.
On to `COc1ccccc1C(=O)[C@H]1CC[C@H]2[C@@H]3CC[C@@H]4C[C@](C)(O)CC[C@]4(C)[C@H]3CC[C@]12C` [Compound 53], for which the 50% inhibitory concentration (IC50) is > 100 nM.
Regarding `C[C@@]1(O)CC[C@@]2(C)[C@H](CC[C@@H]3[C@@H]2CC[C@]2(C)[C@@H](C(=O)c4ccc(F)cc4)CC[C@@H]32)C1` [Compound 54], the IC50 fell in the range of 50 to 100 nM.
Regarding `C[C@@]1(O)CC[C@H]2[C@H](CC[C@@H]3[C@@H]2CC[C@]2(C)[C@@H](C(=O)c4ccc(F)cc4)CC[C@@H]32)C1` [Compound 55], the 50% inhibitory concentration (IC50) lay in the range of 20 to 50 nM.
Consider `C[C@@]1(O)CC[C@H]2[C@H](CC[C@@H]3[C@@H]2CC[C@]2(C)[C@@H](C(=O)c4cccc(F)c4)CC[C@@H]32)C1` [Compound 56], for which the half-inhibitory concentration (IC50) was in the range of 20 to 50 nM.
For `C[C@@]1(O)CC[C@H]2[C@@H](CC[C@@H]3[C@@H]2CC[C@]2(C)[C@@H](C(=O)c4ccc(-c5ccccc5)cc4)CC[C@@H]32)C1` [Compound 58] the value was 50 to 100 nM; for `C[C@@]1(O)CC[C@H]2[C@@H](CC[C@@H]3[C@@H]2CC[C@]2(C)[C@@H](C(=O)c4ccc5ccccc5c4)CC[C@@H]32)C1` [Compound 59], 50 to 100 nM.
Then `C[C@@]1(O)CC[C@H]2[C@H](CC[C@@H]3[C@@H]2CC[C@]2(C)[C@@H](C(=O)c4ccccn4)CC[C@@H]32)C1` [Compound 60], with > 100 nM; and `COc1ccc(C(=O)[C@H]2CC[C@H]3[C@@H]4CC[C@@H]5C[C@](C)(O)CC[C@]5(C)[C@H]4CC[C@]23C)cc1` [Compound 61], with > 100 nM; and `C[C@@]1(O)CC[C@@]2(C)[C@H](CC[C@@H]3[C@@H]2CC[C@]2(C)[C@@H](C(=O)c4ccccn4)CC[C@@H]32)C1` [Compound 62], with > 100 nM.
As to `COc1cccc(C(=O)[C@H]2CC[C@H]3[C@@H]4CC[C@@H]5C[C@](C)(O)CC[C@]5(C)[C@H]4CC[C@]23C)c1` [Compound 63], the IC50 was 50 to 100 nM.
In the case of `Cc1ccccc1C(=O)[C@H]1CC[C@H]2[C@@H]3CC[C@@H]4C[C@](C)(O)CC[C@@H]4[C@H]3CC[C@]12C` [Compound 64], the IC50 was > 100 nM.
For `C[C@@]1(O)CC[C@H]2[C@H](CC[C@@H]3[C@@H]2CC[C@]2(C)[C@@H](C(=O)c4cccnc4)CC[C@@H]32)C1` [Compound 70] the value was 50 to 100 nM; for `COc1cccc(C(=O)[C@H]2CC[C@H]3[C@@H]4CC[C@H]5C[C@](C)(O)CC[C@@H]5[C@H]4CC[C@]23C)c1` [Compound 71], > 100 nM; for `COc1ccc2cc(C(=O)[C@H]3CC[C@H]4[C@@H]5CC[C@@H]6C[C@](C)(O)CC[C@@H]6[C@H]5CC[C@]34C)ccc2c1` [Compound 72], 20 to 50 nM.
As for `Cc1cccc(C(=O)[C@H]2CC[C@H]3[C@@H]4CC[C@@H]5C[C@](C)(O)CC[C@]5(C)[C@H]4CC[C@]23C)c1` [Compound 73], the IC50 lay in the range of 50 to 100 nM.
For `Cc1cccc(C(=O)[C@H]2CC[C@H]3[C@@H]4CC[C@@H]5C[C@](C)(O)CC[C@@H]5[C@H]4CC[C@]23C)c1` [Compound 74] the value was 20 to 50 nM; for `Cc1ccc(C(=O)[C@H]2CC[C@H]3[C@@H]4CC[C@H]5C[C@](C)(O)CC[C@]5(C)[C@H]4CC[C@]23C)cc1` [Compound 75], > 100 nM; for `COc1ccc(C(=O)[C@H]2CC[C@H]3[C@@H]4CC[C@H]5C[C@](C)(O)CC[C@]5(C)[C@H]4CC[C@]23C)cc1` [Compound 76], > 100 nM.
For `COc1cccc(C(=O)[C@H]2CC[C@H]3[C@@H]4CC[C@H]5C[C@](C)(O)CC[C@]5(C)[C@H]4CC[C@]23C)c1` [Compound 77] the value was > 100 nM.
Regarding `COc1ccccc1C(=O)[C@H]1CC[C@H]2[C@@H]3CC[C@H]4C[C@](C)(O)CC[C@]4(C)[C@H]3CC[C@]12C` [Compound 78], the half-inhibitory concentration (IC50) is > 100 nM.
In the case of `C[C@@]1(O)CC[C@@]2(C)[C@@H](CC[C@@H]3[C@@H]2CC[C@]2(C)[C@@H](C(=O)c4ccc(F)cc4)CC[C@@H]32)C1` [Compound 79], the IC50 is > 100 nM.
In the case of `C[C@@]1(O)CC[C@@]2(C)[C@@H](CC[C@@H]3[C@@H]2CC[C@]2(C)[C@@H](C(=O)c4ccccc4F)CC[C@@H]32)C1` [Compound 80], the IC50 was > 100 nM.
Turning to `C[C@@]1(O)CC[C@@]2(C)[C@@H](CC[C@@H]3[C@@H]2CC[C@]2(C)[C@@H](C(=O)c4ccc(Cl)cc4)CC[C@@H]32)C1` [Compound 81], the IC50 was > 100 nM.
With `Cc1cccc(C(=O)[C@H]2CC[C@H]3[C@@H]4CC[C@H]5C[C@](C)(O)CC[C@]5(C)[C@H]4CC[C@]23C)c1` [Compound 82], the concentration for half-maximal inhibition (IC50) is > 100 nM.
As for `C[C@@]1(O)CC[C@@]2(C)[C@H](CC[C@@H]3[C@@H]2CC[C@]2(C)[C@@H](C(=O)c4cccc(F)c4)CC[C@@H]32)C1` [Compound 83], the half-inhibitory concentration (IC50) was 20 to 50 nM.
Take `C[C@@]1(O)CC[C@@]2(C)[C@H](CC[C@@H]3[C@@H]2CC[C@]2(C)[C@@H](C(=O)c4ccccc4F)CC[C@@H]32)C1` [Compound 84]: the 50% inhibitory concentration (IC50) is > 100 nM.
Regarding `COc1ccc2cc(C(=O)[C@H]3CC[C@H]4[C@@H]5CC[C@@H]6C[C@](C)(O)CC[C@]6(C)[C@H]5CC[C@]34C)ccc2c1` [Compound 85], the IC50 is > 100 nM.
As to `Cc1ccc(C(=O)[C@H]2CC[C@H]3[C@@H]4CC[C@@H]5C[C@](C)(O)CC[C@@H]5[C@H]4CC[C@]23C)cc1` [Compound 86], the half-inhibitory concentration (IC50) fell in the range of 20 to 50 nM.
Consider `COc1ccc(C(=O)[C@H]2CC[C@H]3[C@@H]4CC[C@H]5C[C@](C)(O)CC[C@@H]5[C@H]4CC[C@]23C)cc1` [Compound 87], for which the 50% inhibitory concentration (IC50) is > 100 nM.
Then `C[C@@]1(O)CC[C@H]2[C@H](CC[C@@H]3[C@@H]2CC[C@]2(C)[C@@H](C(=O)c4cnc[nH]4)CC[C@@H]32)C1` [Compound 88], with > 100 nM; and `Cc1ccc(C(=O)[C@H]2CC[C@H]3[C@@H]4CC[C@@H]5C[C@](C)(O)CC[C@]5(C)[C@H]4CC[C@]23C)cc1` [Compound 89], with 50 to 100 nM; and `COC[C@]12CC[C@@](C)(O)C[C@@H]1CC[C@H]1[C@@H]3CC[C@H](C(=O)c4ccccc4-c4ccccc4)[C@@]3(C)CC[C@@H]12` [Compound 91], with > 100 nM.
Regarding `COC[C@]12CC[C@@](C)(O)C[C@@H]1CC[C@H]1[C@@H]3CC[C@H](C(=O)c4ccc(C)cc4)[C@@]3(C)CC[C@@H]12` [Compound 92], the 50% inhibitory concentration (IC50) is > 100 nM.
As to `COC[C@]12CC[C@@](C)(O)C[C@@H]1CC[C@H]1[C@@H]3CC[C@H](C(=O)c4cc(C)cc(C)c4)[C@@]3(C)CC[C@@H]12` [Compound 93], the 50% inhibitory concentration (IC50) is 50 to 100 nM.
As to `COC[C@]12CC[C@@](C)(O)C[C@@H]1CC[C@H]1[C@@H]3CC[C@H](C(=O)c4ccc5c(c4)OCO5)[C@@]3(C)CC[C@@H]12` [Compound 94], the IC50 lay within 50 to 100 nM.
Consider `COC[C@]12CC[C@@](C)(O)C[C@@H]1CC[C@H]1[C@@H]3CC[C@H](C(=O)c4ccc(C)c(C)c4)[C@@]3(C)CC[C@@H]12` [Compound 95], for which the concentration for half-maximal inhibition (IC50) was > 100 nM.
For `COC[C@]12CC[C@@](C)(O)C[C@@H]1CC[C@H]1[C@@H]3CC[C@H](C(=O)c4ccc(OC)cc4C)[C@@]3(C)CC[C@@H]12` [Compound 96], the IC50 was > 100 nM.
Regarding `COC[C@]12CC[C@@](C)(O)C[C@@H]1CC[C@H]1[C@@H]3CC[C@H](C(=O)c4ccc5cc(OC)ccc5c4)[C@@]3(C)CC[C@@H]12` [Compound 97], the concentration for half-maximal inhibition (IC50) is > 100 nM.
`C[C@@]1(O)CC[C@H]2[C@H](CC[C@@H]3[C@@H]2CC[C@]2(C)[C@@H](C(=O)c4cnn[nH]4)CC[C@@H]32)C1` [Compound 98]: the IC50 was > 100 nM.
Regarding `Cn1ncc(C(=O)[C@H]2CC[C@H]3[C@@H]4CC[C@@H]5C[C@](C)(O)CC[C@@H]5[C@H]4CC[C@]23C)n1` [Compound 99], the half-maximal inhibitory concentration (IC50) is > 100 nM.
